Measured values from ChEMBL document CHEMBL1201862, “PubChem BioAssay data set” (2004).
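Grown in 96-well plates, cells were treated for 48 hours with each compound at five concentrations. Insufficient inhibition: endpoint recorded as highest concentration tested. GI50 marks 50% less growth.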 The source made the active and inactive calls. No stated cut-off is given here; in the data, active = GI50 up to about 1.1 µM and inactive = higher.

Assays:
Experiment in all cases: NCI anticancer screen, dose series, 48 h
[1] = tested on: HCT-116
[2] = tested on: NCI-H226
[3] = tested on: 786-0
[4] = tested on: LOX IMVI
[5] = tested on: UACC-62
[6] = tested on: OVCAR-3
[7] = tested on: NCI-H23
[8] = tested on: SK-MEL-28
[9] = tested on: HOP-62
[10] = tested on: SR
[11] = tested on: HCC 2998
[12] = tested on: RPMI-8226
[13] = tested on: SF-268
[14] = tested on: Malme-3M
[15] = tested on: A549
[16] = tested on: CAKI-1
[17] = tested on: SK-OV-3

Measured: GI50

C=C1[C@@H]2CCC(C)(C)[C@H]1CCC(=O)[C@@H]2C(=O)OC
inactive: [1] > 100 µM | [2] > 100 µM | [3] > 100 µM | [4] > 100 µM | [5] > 100 µM | [6] > 100 µM | [7] > 100 µM | [8] > 100 µM | [9] > 100 µM | [10] > 100 µM | [11] > 100 µM | [12] > 100 µM | [13] > 100 µM | [14] > 100 µM | [15] > 100 µM

COC(=O)C(Cl)=C1CC1
inactive: [2] > 100 µM | [16] 17.9 µM | [3] 26.1 µM | [4] 16.7 µM | [17] > 100 µM | [5] 59 µM | [6] 26.7 µM | [7] 45.2 µM | [8] 22.9 µM | [9] > 100 µM | [11] 31.7 µM | [12] 21.8 µM | [13] 92.5 µM | [14] 21.1 µM | [15] > 100 µM

ClC(Cl)=C(Cl)C1(Cl)CC1COCc1ccccc1 (stereo unspecified)
inactive: [2] 22.4 µM | [16] 65.8 µM | [3] 44.3 µM | [4] 23.1 µM | [17] 39.4 µM | [5] 22.5 µM | [6] 22.6 µM | [7] 25.2 µM | [8] 56.2 µM | [9] 25.9 µM | [11] 31.6 µM | [12] 15.8 µM | [13] 43.3 µM | [14] 18.4 µM | [15] 26.1 µM

CCC(=O)CC(=O)CCC(=O)Nc1cc(C)ccc1C
inactive: [1] > 100 µM | [3] > 100 µM | [4] > 100 µM | [17] > 100 µM | [5] > 100 µM | [6] > 100 µM | [7] > 100 µM | [8] > 100 µM | [10] > 100 µM | [12] > 100 µM | [13] > 100 µM | [14] > 100 µM | [15] > 100 µM

CC1C(c2ccccc2)N(C)C(c2ccccc2)C(C)C1(O)c1ccccc1 (stereo unspecified)
inactive: [1] 26.4 µM | [2] 44.2 µM | [16] > 100 µM | [3] > 100 µM | [4] 37.2 µM | [17] > 100 µM | [5] > 100 µM | [6] 51.4 µM | [7] > 100 µM | [8] > 100 µM | [9] > 100 µM | [11] > 100 µM | [13] > 100 µM | [14] > 100 µM | [15] 99.5 µM

c1ccc2c(c1)CCc1cc3cc4c(nc3nc1-2)-c1ccccc1CC4
inactive: [1] > 100 µM | [2] > 100 µM | [3] 83 µM | [4] > 100 µM | [17] > 100 µM | [5] > 100 µM | [6] > 100 µM | [7] > 100 µM | [8] > 100 µM | [9] > 100 µM | [10] > 100 µM | [11] > 100 µM | [12] > 100 µM | [13] 83 µM | [14] > 100 µM | [15] > 100 µM

COc1cc2c(cc1OCc1ccccc1)CNCC2
inactive: [1] > 100 µM | [2] > 100 µM | [16] > 100 µM | [3] > 100 µM | [4] 91.6 µM | [17] > 100 µM | [5] > 100 µM | [6] > 100 µM | [7] > 100 µM | [8] > 100 µM | [9] > 100 µM | [11] > 100 µM | [13] > 100 µM | [14] > 100 µM | [15] > 100 µM

Cc1ccc(Cl)c2c(=O)cc(-c3ccccc3)[nH]c12
inactive: [1] 58.5 µM | [2] 48.3 µM | [16] 84.9 µM | [3] > 100 µM | [4] 39.7 µM | [17] > 100 µM | [5] 42.5 µM | [7] 59.7 µM | [8] > 100 µM | [9] 54.3 µM | [10] 25.1 µM | [12] 40.8 µM | [13] 58.6 µM | [14] 51.6 µM | [15] 46.3 µM

NC(=S)N1N=C2CCCCCC[C@@H]2[C@H]1c1ccccc1
inactive: [1] 43.1 µM | [2] 18.6 µM | [16] > 100 µM | [3] 67 µM | [4] 32.8 µM | [17] > 100 µM | [5] 44.1 µM | [6] 39.3 µM | [7] 40.2 µM | [8] 89.7 µM | [9] > 100 µM | [11] 79.4 µM | [12] 15.1 µM | [13] > 100 µM | [14] 59.3 µM | [15] 24.4 µM

Cc1cc(Cl)ccc1NC(=O)C1C(=O)N(c2ccc(Cl)cc2C)C(=O)/C1=N\NC(N)=S (stereo unspecified)
inactive: [1] 21.9 µM | [3] 32.6 µM | [5] 31.6 µM | [6] 32.8 µM | [7] 19.8 µM | [8] > 10 µM | [9] 21.3 µM | [11] 20.8 µM | [12] 44.8 µM | [13] 35.6 µM | [14] 18.7 µM | [15] 35.4 µM

O=C1C(Cl)=C(NCCOCCO)C(=O)c2c(O)ccc(O)c21
inactive: [1] 2.86 µM | [2] 18.3 µM | [16] 23.9 µM | [3] 4.97 µM | [4] 3.61 µM | [17] 17.3 µM | [5] 3.24 µM | [7] 1.88 µM | [9] 20 µM | [10] 6.53 µM | [12] 3.1 µM | [14] 2.82 µM | [15] 5.75 µM

O=C(Nc1cc(Cl)ccc1Cl)c1cc2cccc(Cl)c2oc1=O
inactive: [1] > 100 µM | [3] > 100 µM | [4] > 100 µM | [17] > 100 µM | [5] > 100 µM | [6] > 100 µM | [7] > 100 µM | [8] > 100 µM | [9] > 100 µM | [12] > 100 µM | [14] > 100 µM | [15] > 100 µM

CC(=O)NC1=C(N)C(=O)c2ccccc2C1=O
inactive: [1] 17.7 µM | [16] > 100 µM | [3] 37.7 µM | [4] 15.3 µM | [17] > 100 µM | [5] 49.8 µM | [6] 20.2 µM | [7] 59.2 µM | [9] > 100 µM | [11] > 100 µM | [12] 60 µM | [13] 37.8 µM | [14] 21.3 µM | [15] 44.4 µM

C/C(CC(=O)Nc1ccc(C)cc1C)=N/N=C(N)N
inactive: [1] > 100 µM | [2] > 100 µM | [3] > 100 µM | [4] > 100 µM | [17] > 100 µM | [5] > 100 µM | [6] > 100 µM | [7] > 100 µM | [8] > 100 µM | [9] > 100 µM | [11] > 100 µM | [12] > 100 µM | [13] > 100 µM | [14] > 100 µM | [15] > 100 µM
